Values of other authors as cited in paper PMC11387175, “Model informed dose regimen optimizing in development of leritrelvir for the treatment of mild or moderate COVID-19” (Frontiers in Pharmacology, 2024).
Read-outs that look alike come from different tables or passages of the source.

Tested on: Delta variant
Parameters: method as in Chen et al., 2023
Details: ref Chen et al., 2023, cited from earlier work

SMILES: O=C(NC1CCCC1)C(=O)[C@H](C[C@@H]1CCNC1=O)NC(=O)[C@@H]1[C@H]2CCC[C@H]2CN1C(=O)[C@@H](NC(=O)C(F)(F)F)C1CCCCC1 [leritrelvir]
- inhibition rate (300 mg/kg): 42.86%
- inhibition rate (600 mg/kg): 100%
- lung pathology: favorable enhancements
- viral titers in the lungs of mice after infection: significantly reduced
